Assay results taken from patent US12042476B2, “Methods for the treatment of lysosomal storage diseases” (McMaster University, priority 2022, dated 2024).
“And” between values parts separate entries of the source, which are not always exact repeats. Equal values may be shown once. “Also recorded” adds a separate entry of the source.

Key:
Format in all cases: in vivo, mouse
[1] = Body mass of hexb−/− mice; settings: hexb−/− mice with 4-PBA compared to wildtype
Experimental: (§1) Protocol one: Two groups of hexb^−/− mice (n=10 per group); One group was administered 4-PBA (Scandinavian Formulas, Inc.) 4 mg/ml (0.4% w/v) in drinking water at 40 d of age. Body weights and vitals were monitored, and motor neuromuscular function were assessed every other day starting at 50 d of age until end point.
(§2) To assess the efficacy of chemical chaperone 4-PBA in reducing ER stress, hexb^−/− mice were administered 4-PBA in their drinking water at 40 d of age and underwent behavioral testing beginning at 7 weeks of age. Utilizing several behavioral tests such as wire hang, body weight, and righting response, measures of degeneration of cerebellar and motor neuromuscular functions were collected (FIG. 14). […] Lastly, an analysis of survivability was conducted using a Mantel-Cox test (FIG. 14 D). […] Overall, an increase of 16 days was noted, with 127 days as the median survival age for untreated hexb^−/− mice and 143 days for 4-PBA treated hexb^−/− mice.

[2] = system: ATF6; assay: ATF6 expression after 4-PBA treatment
[3] = system: hexb^−/− mice; assay: Righting reflex / righting response in hexb−/− mice
Experimental: as §1, §2

[4] = system: Calretinin-positive interneurons; assay: Immunofluorescence of Calretinin in spinal cord sections; settings: 4-PBA treated hexb−/− mice
Source text: (§3) Protocol Two: Two groups of hexb^−/− mice at 40 d of age (n=4 per group) were set. […] Mice were perfused at 80 d, with formalin and processed for immunocytochemistry. Spine sections from treated and untreated mice were immunolabelled with multiple antibodies and evaluated.
Spinal cords from hexb^+/+ and hexb^−/− mice were harvested at 40, 60, 80, 100, and 120 d and embedded in paraffin as described above. Samples were rehydrated, first by washing slides with xylene then by washing them with a 1:1 solution of xylene and ethanol (EtOH) followed by washes in 100% EtOH, 95% EtOH, 70% EtOH, 70% EtOH/1% lithium carbonate solution, 70% EtOH, and finally, 50% EtOH. Next, antigen retrieval in a sodium citrate buffer (pH 6) was performed by microwaving the slides at 1 min intervals until boiling and then maintaining a boil for 5 minutes. The slides were then washed with tap water followed by a wash in glycine. Following, the slides were then incubated with bloxall blocking solution for 10 minutes, followed by a 5 minute wash with PBS. Slides were then blocked with 2.5% horse serum for 20 minutes. Samples were then double labelled with a combination of anti-GFAP (1:100, Sigma; G9269), anti-ChAT (1:200, SIGMA), anti-Calretinin (1:200, Proteintech) and anti-NeuN (1:100, novus biologicals; N.BP1-92693). Slides were incubated with antibodies overnight at 4° C. […]

[5] = system: hexb^−/− mice; assay: Survival of Sandhoff (hexb−/−) mice given 4-PBA in drinking water, Mantel-Cox analysis
Experimental: Mouse work was conducted under the animal utilization protocol (AUP) in accordance with the Ontario Animals for Research Act specifications and the Animal Research Ethics Board (AREB) guidelines. The Sandhoff model mice (hexb^−/− on a C57BL/6 background) were generously donated by Dr. R. Gravel (University of Calgary, Canada) and have been previously characterized.
as §1, §2

[6] = system: ChAT-positive motor neurons (AHNs); assay: Immunofluorescence of ChAT and GFAP in anterior horn of spinal cord; settings: 4-PBA treated hexb−/− mice
Source text: as §3
Spinal cords from hexb^+/+ and hexb^−/− mice were harvested at 40, 60, 80, 100, and 120 d and embedded in paraffin as described above. Samples were rehydrated, first by washing slides with xylene then by washing them with a 1:1 solution of xylene and ethanol (EtOH) followed by washes in 100% EtOH, 95% EtOH, 70% EtOH, 70% EtOH/1% lithium carbonate solution, 70% EtOH, and finally, 50% EtOH. Next, antigen retrieval in a sodium citrate buffer (pH 6) was performed by microwaving the slides at 1 min intervals until boiling and then maintaining a boil for 5 minutes. The slides were then washed with tap water followed by a wash in glycine. Following, the slides were then incubated with bloxall blocking solution for 10 minutes, followed by a 5 minute wash with PBS. Slides were then blocked with 2.5% horse serum for 20 minutes. Samples were then double labelled with a combination of anti-GFAP (1:100, Sigma; G9269), anti-ChAT (1:200, SIGMA), anti-Calretinin (1:200, Proteintech) and anti-NeuN (1:100, novus biologicals; N.BP1-92693). Slides were incubated with antibodies overnight at 4° C. Samples were washed with 1×PBS+0.05% TWEEN20 for 3×5 minutes, prior to application of the secondary antibody. Following, slides were double labeled with appropriate Alexa Fluor secondaries (Invitrogen, goat anti-rabbit 488: A11037, goat anti-mouse 594: A11029) and then again washed with 1×PBS+0.05% TWEEN20. Finally, the slides were mounted with ProLong Diamond antifade mountant reagent with DAPI (Invitrogen: P36966). Samples were imaged using Ziess Axiovert 200 scope equipped with an HBO 100 mercury lamp.
One of the hall marks of motor neurons within the spinal cord is the enzyme choline acetyltransferase (ChAT). […]

[7] = system: muscle fibers; assay: Cross-sectional area of muscle fibers from muscles surrounding the spinal cord; settings: 4-PBA treated hexb−/− mice, 80 d
Source text: as §3
Neuromuscular deficits are a highly prevalent consequence of Sandhoff disease. Therefore, cell body sectional area of the anterior horn neurons and the cross-sectional area of muscle fibers from the muscles surrounding the spinal cord of 80 d hexb^+/+ and hexb^−/− mice were evaluated (FIG. 19). Within hexb^+/+ mice, muscle fibres have an average area of ˜1000 um^2 while in contrast hexb^−/− mice show a 44% reduction in area with an average of −570 um^2. Such a drastic reduction early in disease pathology indicates mass muscle atrophy and neuronal loss has already occurred.

[8] = system: hexb^−/− mice; assay: Wire hang test in hexb−/− mice; settings: hexb−/− mice treated with 4-PBA vs untreated
Experimental: as §1, §2

[9] = system: cleaved caspase 7; assay: Immunofluorescence of cleaved caspase 7 and NeuN in spinal cord; settings: after 4-PBA treatment vs untreated
Source text: as §3
(§4) Spinal cords from hexb^+/+ and hexb^−/− mice were harvested at 40, 60, 80, 100, and 120 d and embedded in paraffin as described above. Samples were rehydrated, first by washing slides with xylene then by washing them with a 1:1 solution of xylene and ethanol (EtOH) followed by washes in 100% EtOH, 95% EtOH, 70% EtOH, 70% EtOH/1% lithium carbonate solution, 70% EtOH, and finally, 50% EtOH. Next, antigen retrieval in a sodium citrate buffer (pH 6) was performed by microwaving the slides at 1 min intervals until boiling and then maintaining a boil for 5 minutes. The slides were then washed with tap water followed by a wash in glycine. […]
(§5) UPR activation was assessed through immunofluorescent staining of phosphorylated eukaryotic initiation factor 2 alpha (p-eIF2α) positive neurons and transcription factor YY1 in spinal cord sections from hexb^−/− mice that were treated or untreated with 4-PBA for (FIG. 15). […] Furthermore, the degree of apoptotic events occurring during disease pathogenesis with and without 4-PBA treatment was evaluated (FIG. 16). […]

[10] = system: phosphorylated eukaryotic initiation factor 2 alpha (p-eIF2α); assay: Immunofluorescence of p-eIF2α and YY1 in spinal cord of hexb−/− mice
Source text: as §3, §4, §5

O=C(O)CCCc1ccccc1 [4-PBA, 4-phenylbutyric acid]
body mass [1]: restored hexb^−/− mice weights to wildtype levels
ATF6 expression [2]: upregulation of ATF6
righting reflex / righting response time ([3]; hexb−/− mice treated with 4-PBA vs untreated): significantly faster righting response; also recorded: significantly faster righting reflex
delay in righting response time impairment ([3]; treated vs untreated hexb−/− mice (untreated impaired by 17 weeks of age)): 2 week
Calretinin-positive interneurons within the anterior horn region [4]: very little Calretinin-positive interneurons
survival / life span (in words) ([5]; hexb−/− mice with 4-PBA vs without, Mantel-Cox P<0.001): beneficial impact on lifespan; also recorded: significant improvement in motor neuromuscular function and life span; also recorded: lived significantly longer
median survival ([5]; hexb−/− mice, 4-PBA 4 mg/ml (0.4% w/v) in drinking water from 40 d of age, untreated 127 days): 143 days
increase of median survival over untreated hexb−/− mice ([5]; hexb−/− mice, 4-PBA 4 mg/ml in drinking water from 40 d of age): 16 days
C-boutons [6]: more prevalent around AHNs motor neurons and throughout the anterior horn
ChAT staining / ChAT-positive motor neurons in anterior horn [6]: ChAT staining was normalized; also recorded: intense cytosolic ChAT staining within viable AHNs; also recorded: ChAT-positive motor neurons were maintained in anterior horn
GFAP staining in anterior horn [6]: intense GFAP staining
muscle fiber cross-sectional area vs hexb+/+ (in words) [7]: no significant difference; also recorded: maintained normal cross section area of muscle fibers
muscle fiber cross-sectional area (average) ([7]; hexb+/+ ~1000, untreated hexb−/− ~570): 900 um^2 and 850 um^2
wire hang time [8]: significant increase in wire hang time; also recorded: longer wire hang
number of cCas7 positive neurons in spinal cord [9]: significant reduction in the number of cCas7 positive neurons; also recorded: suppressed c-Cas7
nuclear localization of p-eIF2α ([10]; hexb−/− mice after 4-PBA treatment vs untreated): increase in the nuclear localization
number of cytosolic p-eIF2α-positive neurons in spinal cord ([10]; hexb−/− mice treated with 4-PBA from 40 d, perfused at 80 d, vs untreated): significant reduction
